Key:
Assay type in all cases: in vivo
[1] = system: Echinochloa crus-galli var. crus-galli; test: Test Example 3: herbicidal effect by application to foliage (Wagner pot, water depth 0.1-0.5 cm); details: Nineteenth Table; application to foliage; application herbicide amount 320 g/ha
Outline: (§1)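 Scores (0–5) reflect herbicidal ratio three weeks after a foliar spray: 0 is 5% or less, 5 is 90% or more. Plants had grown 14 days in alluvial soil pots in a 25–30 °C greenhouse before treatment with water-diluted emulsion at a set g/ha.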

Leptochloa chinensis = test: as above; details: Nineteenth Table; application to foliage; application herbicide amount 320 g/ha
Outline: as §1

[2] = system: directly sowed Oryza sativa; test: Test Example 3: effect on crop by application to foliage (Wagner pot, water depth 0.1-0.5 cm); details: Nineteenth Table; application to foliage; application herbicide amount 320 g/ha
Text: 5 Herbicidal ratio of 90% or more (almost completely withered) 4 Herbicidal ratio of 70% or more and less than 90% 3 Herbicidal ratio of 40% or more and less than 70% 2 Herbicidal ratio of 20% or more and less than 40% 1 Herbicidal ratio of 5% or more and less than 20% 0 Herbicidal ratio of 5% or less (almost no effect) [Test Example 3] Herbicidal Effect Test by Application to Foliage After alluvial soil was placed into 1/10000 are of Wagner pot, water was poured and mixed to form a condition having a water depth of 0.1 cm to 0.5 cm. Seeds of Echinochloa crus-galli var. crus-galli, Leptochloa chinensis, Cyperus difformis, and Oryza sativa were sowed and the pot was placed in the greenhouse of 25° C. to 30° C. to grow the plants. After the plants were grown for 14 days, the emulsion agent containing the compound of the present invention prepared in accordance with Formulation Example 2 was diluted with water so as to be a predetermined herbicide amount and the diluted compound was uniformly applied to a stem and leaf part with a small-size spray. Three weeks after the herbicide application, effects on each plant were investigated in accordance with the criteria of Test Example 1. A: Echinochloa oryzicola Vasing., B: Scirpus juncoides, C: Monochoria vaginalis, D: Leptochloa chinensis, E: Cyperus difformis, F: Digitaria ciliaris, G: Setaria viridis, H: Echinochloa crus-galli var. crus-galli, I: Avena fatua, J: Alopecurus myosuroides, K: Lolium multiflorum Lam., L: Apera spica-venti., M: Abutilon theophrasti, N: Amaranthus retroflexus, O: Chenopodium album, P: Stellaria media, Q: Galium spurium, R: Veronica persica, a: transplanted Oryza sativa, b: directly sowed Oryza sativa, c: Zea mays, d: Glycine max, e: Triticum aestivum, f: Beta vulgaris ssp. vulgaris, and g: Brassica campestris L. The application herbicide amount (g/ha) means an amount that a concentration is adjusted so that, when an application amount is converted into per hectare (1 ha), the herbicide is applied by the number of grams (g) of the described value.

Abutilon theophrasti = test: Test Example 4: herbicidal effect by application to foliage (diluvial soil, plastic box); details: application to foliage, application herbicide amount 320 g/ha
Text: (§2) 5 Herbicidal ratio of 90% or more (almost completely withered) 4 Herbicidal ratio of 70% or more and less than 90% 3 Herbicidal ratio of 40% or more and less than 70% 2 Herbicidal ratio of 20% or more and less than 40% 1 Herbicidal ratio of 5% or more and less than 20% 0 Herbicidal ratio of 5% or less (almost no effect) [Test Example 4] Herbicidal Effect Test by Application to Foliage Sterilized diluvial soil was placed in a plastic box having a length of 21 cm, a width of 13 cm, and a depth of 7 cm. Each of the seeds of Digitaria ciliaris, Setaria viridis, Echinochloa crus-galli var. crus-galli, Avena fatua, Alopecurus myosuroides, Lolium multiflorum Lam., Apera spica-venti., Abutilon theophrasti, Amaranthus retroflexus, Chenopodium album, Stellaria media, Galium spurium, Veronica persica, Zea mays, Glycine max, Oryza sativa, Triticum aestivum, Beta vulgaris ssp. vulgaris, and Brassica campestris L. was sowed in a spot-like manner and was covered with the soil of about 1.5 cm thick. Thereafter, the plants were grown in the greenhouse of 25° C. to 30° C. After the plants were grown for 14 days, the emulsion agent containing the compound of the present invention prepared in accordance with Formulation Example 2 was diluted with water so as to be a predetermined herbicide amount and the diluted compound was uniformly applied to a stem and leaf part with a small-size spray. Three weeks after the herbicide application, effects on each plant were investigated in accordance with the criteria of Test Example 1. A: Echinochloa oryzicola Vasing., B: Scirpus juncoides, C: Monochoria vaginalis, D: Leptochloa chinensis, E: Cyperus difformis, F: Digitaria ciliaris, G: Setaria viridis, H: Echinochloa crus-galli var. crus-galli, I: Avena fatua, J: Alopecurus myosuroides, K: Lolium multiflorum Lam., L: Apera spica-venti., M: Abutilon theophrasti, N: Amaranthus retroflexus, O: Chenopodium album, P: Stellaria media, Q: Galium spurium, R: Veronica persica, a: transplanted Oryza sativa, b: directly sowed Oryza sativa, c: Zea mays, d: Glycine max, e: Triticum aestivum, f: Beta vulgaris ssp. vulgaris, and g: Brassica campestris L. The application herbicide amount (g/ha) means an amount that a concentration is adjusted so that, when an application amount is converted into per hectare (1 ha), the herbicide is applied by the number of grams (g) of the described value.

Alopecurus myosuroides = test: as above; details: application to foliage, application herbicide amount 320 g/ha
Text: as §2

Amaranthus retroflexus = test: as above; details: application to foliage, application herbicide amount 320 g/ha
Text: as §2

Apera spica-venti. = test: as above; details: application to foliage, application herbicide amount 320 g/ha
Text: as §2

Avena fatua = test: as above; details: application to foliage, application herbicide amount 320 g/ha
Text: as §2

Chenopodium album = test: as above; details: application to foliage, application herbicide amount 320 g/ha
Text: as §2

Digitaria ciliaris = test: as above; details: application to foliage, application herbicide amount 320 g/ha
Text: as §2

[3] = system: Echinochloa crus-galli var. crus-galli; test: as above; details: application to foliage, application herbicide amount 320 g/ha
Text: as §2

Galium spurium = test: as above; details: application to foliage, application herbicide amount 320 g/ha
Text: as §2

Lolium multiflorum Lam. = test: as above; details: application to foliage, application herbicide amount 320 g/ha
Text: as §2

Setaria viridis = test: as above; details: application to foliage, application herbicide amount 320 g/ha
Text: as §2

Stellaria media = test: as above; details: application to foliage, application herbicide amount 320 g/ha
Text: as §2

Veronica persica = test: as above; details: application to foliage, application herbicide amount 320 g/ha
Text: as §2

[4] = system: Beta vulgaris ssp. vulgaris; test: Test Example 4: effect on crop by application to foliage (diluvial soil, plastic box); details: application to foliage, application herbicide amount 320 g/ha
Outline: (§3)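 Emulsion-formulated compound, diluted to a predetermined g/ha dose, applied by small sprayer to leaves and stems of 14-day-old seedlings grown in sterilized diluvial soil. Effect rated on 0–5 herbicidal-ratio scale three weeks on.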

Brassica campestris L. = test: as above; details: application to foliage, application herbicide amount 320 g/ha
Outline: as §3

Glycine max = test: as above; details: application to foliage, application herbicide amount 320 g/ha
Outline: as §3

Triticum aestivum = test: as above; details: application to foliage, application herbicide amount 320 g/ha
Outline: as §3

Zea mays = test: as above; details: application to foliage, application herbicide amount 320 g/ha
Outline: as §3

[5] = system: directly sowed Oryza sativa; test: as above; details: application to foliage, application herbicide amount 320 g/ha
Outline: as §3

Row | SMILES | H (herbicidal effect grade) [1] | D (herbicidal effect grade) (Leptochloa chinensis) | b (effect on crop grade) [2] | M: herbicidal effect on Abutilon theophrasti (Abutilon theophrasti) | J: herbicidal effect on Alopecurus myosuroides (Alopecurus myosuroides) | N: herbicidal effect on Amaranthus retroflexus (Amaranthus retroflexus) | L: herbicidal effect on Apera spica-venti. (Apera spica-venti.) | I: herbicidal effect on Avena fatua (Avena fatua) | O: herbicidal effect on Chenopodium album (Chenopodium album) | F: herbicidal effect on Digitaria ciliaris (Digitaria ciliaris) | H: herbicidal effect on Echinochloa crus-galli var. crus-galli [3] | Q: herbicidal effect on Galium spurium (Galium spurium) | K: herbicidal effect on Lolium multiflorum Lam. (Lolium multiflorum Lam.) | G: herbicidal effect on Setaria viridis (Setaria viridis) | P: herbicidal effect on Stellaria media (Stellaria media) | R: herbicidal effect on Veronica persica (Veronica persica) | f: effect on crop, Beta vulgaris ssp. vulgaris [4] | g: effect on crop, Brassica campestris L. (Brassica campestris L.) | d: effect on crop, Glycine max (Glycine max) | e: effect on crop, Triticum aestivum (Triticum aestivum) | other results
1 | Cc1nnc(NC(=O)c2ccc(C(F)(F)F)n3c(C4CC=CCC4)nnc23)o1 (centres unmarked) [1-170] | 2 (Herbicidal ratio of 20% or more and less than 40%) | 4 (Herbicidal ratio of 70% or more and less than 90%) | 1 (Herbicidal ratio of 5% or more and less than 20%) | 3 (Herbicidal ratio of 40% or more and less than 70%) | 0 (Herbicidal ratio of 5% or less (almost no effect)) | 3 (Herbicidal ratio of 40% or more and less than 70%) | 1 (Herbicidal ratio of 5% or more and less than 20%) | 1 (Herbicidal ratio of 5% or more and less than 20%) | 5 (Herbicidal ratio of 90% or more (almost completely withered)) | 4 (Herbicidal ratio of 70% or more and less than 90%) | 4 (Herbicidal ratio of 70% or more and less than 90%) | 2 (Herbicidal ratio of 20% or more and less than 40%) | 1 (Herbicidal ratio of 5% or more and less than 20%) | 3 (Herbicidal ratio of 40% or more and less than 70%) | 4 (Herbicidal ratio of 70% or more and less than 90%) | 4 (Herbicidal ratio of 70% or more and less than 90%) | 5 (Herbicidal ratio of 90% or more (almost completely withered)) | 3 (Herbicidal ratio of 40% or more and less than 70%) | 2 (Herbicidal ratio of 20% or more and less than 40%) | 0 (Herbicidal ratio of 5% or less (almost no effect)) | c: effect on crop, Zea mays (Zea mays): 0 (Herbicidal ratio of 5% or less (almost no effect)); b: effect on crop, directly sowed Oryza sativa [5]: 0 (Herbicidal ratio of 5% or less (almost no effect))
2 | CCN(C(=O)c1ccc(C(F)(F)F)n2c(C3(C)CC3(Cl)Cl)nnc12)c1nnc(C)o1 (centres unmarked) [1-174, 3-(2,2-Dichloro-1-methylcyclopropyl)-N-ethyl-N-(5-methyl-1,3,4-oxadiazol-2-yl)-5-(trifluoromethyl)-[1,2,4]triazolo[4,3-a]pyridine-8-carboxamide] | 2 (Herbicidal ratio of 20% or more and less than 40%) | 2 (Herbicidal ratio of 20% or more and less than 40%) | 0 (Herbicidal ratio of 5% or less (almost no effect)) | 0 (Herbicidal ratio of 5% or less (almost no effect)) | 0 (Herbicidal ratio of 5% or less (almost no effect)) | 4 (Herbicidal ratio of 70% or more and less than 90%) | 0 (Herbicidal ratio of 5% or less (almost no effect)) | 0 (Herbicidal ratio of 5% or less (almost no effect)) | 5 (Herbicidal ratio of 90% or more (almost completely withered)) | 0 (Herbicidal ratio of 5% or less (almost no effect)) | 0 (Herbicidal ratio of 5% or less (almost no effect)) | 3 (Herbicidal ratio of 40% or more and less than 70%) | 0 (Herbicidal ratio of 5% or less (almost no effect)) | 0 (Herbicidal ratio of 5% or less (almost no effect)) | 3 (Herbicidal ratio of 40% or more and less than 70%) | 3 (Herbicidal ratio of 40% or more and less than 70%) | 4 (Herbicidal ratio of 70% or more and less than 90%) | 0 (Herbicidal ratio of 5% or less (almost no effect)) | 0 (Herbicidal ratio of 5% or less (almost no effect)) | 0 (Herbicidal ratio of 5% or less (almost no effect)) | c: effect on crop, Zea mays (Zea mays): 0 (Herbicidal ratio of 5% or less (almost no effect)); b: effect on crop, directly sowed Oryza sativa [5]: 0 (Herbicidal ratio of 5% or less (almost no effect))
